According to ChEMBL document CHEMBL1151318, “New secosteroids from a gorgonian of the genus Muricella” (1998):
Converted amounts (≈) assume the structure as drawn.

Key:
K562 = assay: Cytotoxicity against human K562 cells; format: functional; conditions: read-out: LC50 (the source's name)
[1] = target: Phospholipase A2 (Homo sapiens) (UniProt P04054); assay: Inhibition of PLA2 at 50 ug/mL
Phospholipase A2 (Homo sapiens), sequence (P04054 23-148 limits assumed): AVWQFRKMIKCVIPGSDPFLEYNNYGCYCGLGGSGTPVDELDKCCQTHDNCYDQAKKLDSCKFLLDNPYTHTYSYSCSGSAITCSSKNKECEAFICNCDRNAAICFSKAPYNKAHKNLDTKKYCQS

Structure (SMILES) | CC50 (K562) [µg/mL] | inhibition [1] [%]
Cc1ccc(O)cc1CC[C@@H]1[C@H](O)CC[C@]2(C)[C@@H]([C@H](C)CCCC(C)C)CC[C@@H]12 [ASTROGORGIADIOL] | 12.1 (≈ 30.2 µM) | 47
Cc1ccc(O)cc1CC[C@@H]1[C@H](O)CC[C@]2(C)[C@@H]([C@H](C)/C=C/C(C)C(C)C)CC[C@@H]12 (stereo partly drawn) [CALICOFEROL F] | 3.2 (≈ 7.75 µM) | 
CC(C)=CCC[C@@H](C)[C@H]1CC[C@H]2[C@H](CCc3cc(O)ccc3C)[C@H](O)CC[C@]12C [CALICOFEROL G] | 2.1 (≈ 5.27 µM) | 55
Cc1ccc(O)cc1CC[C@@H]1[C@H](O)CC[C@]2(C)[C@@H]([C@H](C)/C=C/C(C)C)CC[C@@H]12 [CALICOFEROL H] | 10.7 (≈ 27.8 µM) | 67
Cc1ccc(O)cc1CC[C@@H]1C(=O)CC[C@]2(C)[C@@H]([C@H](C)CCCC(C)C)[C@@H](O)C[C@@H]12 [CALICOFEROL I] | 9.6 (≈ 23.2 µM) | 
